Assay results published in paper PMC8963580, “Biophysical methods in early drug discovery” (ADMET & DMPK, 2019).

Columns and labels:
[1] = target: T1, NAD binding domain of PHGDH (Homo sapiens, UniProt O43175); assay: SPR titration, steady state fit
T1 sequence (O43175 93-298 limits assumed): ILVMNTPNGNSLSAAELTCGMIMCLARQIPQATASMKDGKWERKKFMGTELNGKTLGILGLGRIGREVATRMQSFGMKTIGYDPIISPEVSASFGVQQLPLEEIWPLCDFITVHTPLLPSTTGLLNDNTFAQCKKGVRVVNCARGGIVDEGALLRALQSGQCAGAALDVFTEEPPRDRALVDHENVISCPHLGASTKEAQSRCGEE

[2] = target: T2, full length PHGDH (Homo sapiens, UniProt O43175); assay: ITC titration; type: binding
T2 sequence (O43175 1-533): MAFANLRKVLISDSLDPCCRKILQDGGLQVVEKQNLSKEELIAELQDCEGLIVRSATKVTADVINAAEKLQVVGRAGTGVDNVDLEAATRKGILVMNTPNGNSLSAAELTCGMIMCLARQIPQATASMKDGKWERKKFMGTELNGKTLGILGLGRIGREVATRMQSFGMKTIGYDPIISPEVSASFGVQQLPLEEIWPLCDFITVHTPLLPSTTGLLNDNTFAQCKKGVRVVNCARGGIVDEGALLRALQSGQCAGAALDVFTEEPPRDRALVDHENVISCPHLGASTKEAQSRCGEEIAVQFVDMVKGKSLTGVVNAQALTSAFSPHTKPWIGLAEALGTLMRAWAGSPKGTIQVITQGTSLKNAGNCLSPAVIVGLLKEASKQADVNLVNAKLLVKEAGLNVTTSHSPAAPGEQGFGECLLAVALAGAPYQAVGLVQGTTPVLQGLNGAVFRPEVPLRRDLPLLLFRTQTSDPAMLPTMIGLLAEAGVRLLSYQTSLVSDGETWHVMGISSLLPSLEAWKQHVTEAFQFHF

[3] = target: T2, full length PHGDH; assay: SPR titration, steady state fit; type: binding
Text: Considering this knowledge, a 1D NMR competition assay with NAD+ as the reference compound was developed. This screen employed the more physiologically relevant full length PHGDH protein, to provide continuity for affinity measurement during the subsequent analoguing phase. It is noteworthy that fragments and many of the synthesised analogues had no measurable activity in the human PHGDH protein NAD fluorescence intensity biochemical assay. Whilst the biophysical methods allowed a wide dynamic range of weak mM to sub μM affinities be determined, the biochemical assay could only be used to provide affinities that could drive SAR once those affinities were sub micromolar. In summary, a fragment crystal cocktail screen, supported with biophysical affinity measurements, provided the first known small molecule known nanomolar inhibitors of PHGDH and valuable tools for interrogating the biology of this target.
(b) SPR titration data for NADH binding to full length PHGDH, Kd = 0.4 ± 0.03 μM determined from a steady state fit, with the kinetic fit curve shown in the inset. […] No label is printed directly beside the Kd values; 'Spot 1' and 'Spot 2' are printed at the top of the plots.

[4] = target: T3, 15N-labeled NAD binding domain of PHGDH (Homo sapiens, UniProt O43175); assay: 2D NMR binding assay (1H15N-TROSY-HSQC chemical shift titration); details: read-out: Kd (chemical shift change versus compound concentration)
T3 sequence (O43175 93-298 limits assumed): T1 sequence (O43175 93-298 limits assumed)
Text: The enzyme 3-phosphohydroxyglycerate dehydrogenase (PHGDH) utilises oxidised ninotinamide dinucleotide (NAD+) and catalyses the conversion of 3-phosphohydroxyglycerate to 3-phosphohydroxypyruvate in humans. The conversion of 3-phosphohydroxyglycerate to 3-phosphohydroxypyruvate is the first, and rate-limiting step, in synthesis of the amino acid serine. Studies have linked PHGDH to the in vivo tumourigenesis in aggressive breast tumours and functional genomics reveal that the serine synthesis pathway is essential in breast cancer. Thus, the druggability of the target was explored with small molecules. To this end a fragment screen of 384 fragments was undertaken using crystal cocktail soaking (mixtures of 4) against the NAD binding domain of PHGDH and 34 hits were identified. The binding affinities of these hits were determined in a 2D NMR binding assay using 15N-labeled NAD binding domain, Figure 6a. […] A simple analogue of an initial crystallography hit (compound 1), the 5-fluoroindole-2-carboxamide (compound 2) bound at a resolution of 1.95 Å in the adenine pocket of the NAD binding site (Figure 6b). The indole NH forms a water-bridged hydrogen bond network with Ser-211, and the 5-fluoro substituent fits nicely into a lipophilic cleft in the binding pocket. […]

[5] = target: T4, PHGDH (Homo sapiens, UniProt O43175); assay: Affinity for PHGDH during fragment optimisation (method not given); type: binding
T4 sequence (O43175 1-533): T2 sequence (O43175 1-533)
Text: The enzyme 3-phosphohydroxyglycerate dehydrogenase (PHGDH) utilises oxidised ninotinamide dinucleotide (NAD+) and catalyses the conversion of 3-phosphohydroxyglycerate to 3-phosphohydroxypyruvate in humans. The conversion of 3-phosphohydroxyglycerate to 3-phosphohydroxypyruvate is the first, and rate-limiting step, in synthesis of the amino acid serine. Studies have linked PHGDH to the in vivo tumourigenesis in aggressive breast tumours and functional genomics reveal that the serine synthesis pathway is essential in breast cancer. Thus, the druggability of the target was explored with small molecules. […] The binding affinities of these hits were determined in a 2D NMR binding assay using 15N-labeled NAD binding domain, Figure 6a. […]
Considering this knowledge, a 1D NMR competition assay with NAD+ as the reference compound was developed. […] It is noteworthy that fragments and many of the synthesised analogues had no measurable activity in the human PHGDH protein NAD fluorescence intensity biochemical assay. Whilst the biophysical methods allowed a wide dynamic range of weak mM to sub μM affinities be determined, the biochemical assay could only be used to provide affinities that could drive SAR once those affinities were sub micromolar. […]

[6] = target: InhA.NADH (Mycobacterium tuberculosis, UniProt P9WGR1); assay: SPR profiling of DEL screening hits, in the presence of 100 μM NADH; type: binding
[7] = target: Apo InhA (Mycobacterium tuberculosis, UniProt P9WGR1); assay: SPR profiling of DEL screening hits, compound injected alone; type: binding
[8] = target: InhA.NAD+ (Mycobacterium tuberculosis, UniProt P9WGR1); assay: SPR profiling of DEL screening hits, in the presence of 2 mM NAD+; type: binding
Chain of InhA.NAD+ (P9WGR1 whole entry, looked up): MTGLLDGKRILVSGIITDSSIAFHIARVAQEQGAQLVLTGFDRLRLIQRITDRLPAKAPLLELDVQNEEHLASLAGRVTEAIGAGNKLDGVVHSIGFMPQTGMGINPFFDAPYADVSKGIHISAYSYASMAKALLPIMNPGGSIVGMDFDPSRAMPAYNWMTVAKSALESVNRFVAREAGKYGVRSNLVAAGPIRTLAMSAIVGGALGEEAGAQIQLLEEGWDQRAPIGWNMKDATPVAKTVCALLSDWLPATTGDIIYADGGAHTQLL

Chain of InhA.NADH (P9WGR1 whole entry, looked up): as above
Chain of Apo InhA (P9WGR1 whole entry, looked up): as above

In the case of `NC(=O)C1=CN([C@@H]2O[C@H](COP(=O)(O)OP(=O)(O)OC[C@H]3O[C@@H](n4cnc5c(N)ncnc54)[C@H](O)[C@@H]3O)[C@@H](O)[C@H]2O)C=CC1` [NADH], the Kd [1] is reported as 6.7 ± 0.5 µM, the Kd [2] is reported as 0.33 ± 0.08 µM and the “N (stoichiometry)” value [2] is reported as 0.78 ± 0.01. The Kd ([3]; SPR steady state fit, full length PHGDH) was 0.4 ± 0.03 µM and the “fold tighter binding to the full-length protein than to the NAD binding domain” value ([3]; combination of ITC and SPR measurements) was “approximately 20 fold”.

With `NC(=O)c1cc2cc(F)ccc2[nH]1` [Compound 2, 5-fluoroindole-2-carboxamide] the Kd [4] was 980 ± 60 µM.

For `O=C(O)c1ccc([C@@H](CO)NC(=O)c2cc3cc(Cl)ccc3[nH]2)cc1` [Compound 5], the “fold improvement in affinity” value ([5]; relative to compound 4) was 10 fold.

`CNC(=O)CN(C(=O)Cc1ccc(-n2cccn2)cc1)C1CCN(c2ccccn2)CC1` [Compound 9] showed a Kd [6] of 36.8 ± 3.3 µM, a Kd [7] of over 100 µM and a Kd [8] of over 100 µM.

`Cc1c(CC(=O)NC2CCC(CC(=O)N3CCN(CC(=O)CN)C(=O)C3Cc3ccccc3)CC2)sc2ccccc12` (centres unmarked) [Compound 6] gave a Kd [6] of 0.3 ± 0.2 µM, a Kd [7] of over 100 µM and a Kd [8] of 13.4 ± 4.3 µM.

Compound `CNC(=O)c1cnc(NC2CCN(c3ccccn3)CC2)c(NCc2ccc(F)c(Oc3ccccc3)c2)c1` [Compound 8] has a Kd [6] of 0.3 ± 0.1 µM, a Kd [7] of over 100 µM and a Kd [8] of over 100 µM.

For `CNC(=O)C1CCCN1C(=O)CC1CCC(NC(=O)C2CC(c3ccccc3)CN2)CC1` (centres unmarked) [Compound 12], the Kd [6] was 6.3 ± 2.6 µM, the Kd [7] was over 100 µM and the Kd [8] was over 100 µM.

`CNC(=O)C1CC(NC(=O)C(NC(=O)c2ccc(Cn3cccn3)cc2)[C@@H](C)OC(C)(C)C)CN1C(=O)c1ccccc1` (some centres unmarked) [Compound 10] was tested, and the Kd [6] was 0.06 ± 0.03 µM, the Kd [7] was over 100 µM and the Kd [8] was 49 ± 2.9 µM.

With `COc1cc2[nH]c(C(=O)N[C@H](CO)c3ccccc3)cc2cc1Cl` [Compound 4] the affinity ([5]; method not stated) was “single digit”.

Work on `CNC(=O)CN(Cc1ccc(C)cc1)C(=O)C[C@H]1CC[C@H](CC(=O)c2nnn(Cc3ccccc3)c2C)CC1` [Compound 7] yielded a Kd [6] of 0.09 ± 0.06 µM, a Kd [7] of over 100 µM and a Kd [8] of 46.7 ± 11.6 µM.

`CCCc1cc(C(=O)N2CCC(C(=O)NC(CC(=O)NC)c3cccc(C(F)(F)F)c3)(c3ccc(Br)cc3)CC2)n(C)n1` (centres unmarked) [Compound 11] was tested, and the Kd [6] was 5 ± 1.2 µM, the Kd [7] was 12.4 ± 1.4 µM and the Kd [8] was 0.3 ± 0.1 µM.
